From paper PMC8534003, “The Chemokine-Based Peptide, CXCL9(74-103), Inhibits Angiogenesis by Blocking Heparan Sulfate Proteoglycan-Mediated Signaling of Multiple Endothelial Growth Factors” (Cancers, 2021)
Where no end group is shown, it is not given here.

Key:
HMVECs = assay: In vitro toxicity assay (LIVE/DEAD viability/cytotoxicity); type: cell-based, human; conditions: 0.3 or 3 µM, 24 h, calcein-AM/EthD-1, n = 4
Protocol: HMVECs were seeded in MCDB131 medium supplemented with 3% (v/v) FCS at 8 × 10^3 cells/well in a black, clear bottom 96-well plate coated with 0.1% (v/v) gelatin in PBS. The next day, cells were washed and incubated with control medium (vide supra) alone or in the presence of 0.3 or 3 µM of CXCL9(74-103) or CXCL9(86-103) for 24 h. The negative control cells were treated with 2% (v/v) Triton™ X-100 to induce cell death […] after the start of the experiment, i.e., 1 h prior to the addition of the LIVE/DEAD stain. The toxicity of the peptides was assessed using the LIVE/DEAD viability/cytotoxicity kit (Invitrogen, Carlsbad, CA, USA), according to the manufacturer’s instructions. At 24 h, calcein-acetoxymethyl ester (AM) and ethidium homodimer-1 (EthD-1) in 0.4% (v/v) FCS in DMEM FluoroBrite (Gibco) were added to all wells and the fluorescence was measured in the IncuCyte S3 live cell imaging system (Essen BioScience, Ltd.; Newark, UK).

FGF-2 [1] = target: T1, FGF-2 (Homo sapiens, UniProt P09038); assay: Grating-coupled interferometry (GCI); type: binding; conditions: FGF-2 over immobilized biotinylated CXCL9(74-103), 25 °C, pH 7.4; mean ± SEM, n = 3
T1 construct: purchased R&D Systems
Protocol: GCI experiments were performed on a Creoptix WAVEdelta system (Creoptix AG, Wädenswil, Switzerland), which is a label-free surface biosensor system for the characterization of molecular interactions. 4PCP-STA chips (Creoptix AG) were used, which contain a quasi-planar polycarboxyl-matrix with pre-immobilized streptavidin. The running buffer for the experiments was PBS supplemented with 30 mM NaCl, 15 mM L-Arginine, 0.015% (v/v) Tween® 20 and 0.05 mg/mL BSA at pH 7.4 for reducing nonspecific binding. Chips were conditioned using borate buffer (100 mM sodium borate, 1 M NaCl, pH 9.0). Capture was performed by injecting biotinylated CXCL9(74-103) at a concentration of 2 µg/mL and a flow rate of 10 µL/minute over the chip surface, until a density of +/− 160 was reached. After capture of biotinylated CXCL9(74-103), binding with FGF-2 was studied by injecting an FGF-2 concentration series over the chip surface. […] A reference channel was blocked in the same way. Injections of the FGF-2 analyte were performed at 25 °C, with an association and dissociation time of 120 seconds and a flow rate of 40 µL/min. Absence of mass-transport limitation was verified by repeating the experiment at 50 µL/minute. A 1:3 dilution series with six dilutions (4.53 nM, 13.6 nM, 40.7 nM, 122 nM, 367 nM, 1.10 µM; all in duplicate) was analyzed. […]

FGF-2 [2] = conditions: cited from earlier work
From the text: Earlier studies that report on targeting HS-mediated interactions most commonly rely on HS mimetics that either mask HS for GF binding or directly interact with the GF, preventing it from binding to HS [39]. […] Pagano et al. reported that the small molecule inhibitor SM27, derived from the FGF-2-binding region of thrombospondin-1 (TSP-1), selectively bound the heparin-binding site of FGF-2 ...

[3] = system: EGFR and α3β1 integrin / syndecan-4; conditions: cited from earlier work
From the text: Syndecan-4, the most abundant mammalian syndecan, has been described to function as an independent receptor for several heparin-binding growth factors such as FGFs, VEGFs and PDGFs. Upon ligand binding, the HSPGs oligomerize and initiate signaling components such as mammalian target of rapamycin (mTOR), RAC-α serine/threonine-protein kinase (AKT1) and the Rho family of GTPases, which are r ...

T1 sequence (P09038 143-288): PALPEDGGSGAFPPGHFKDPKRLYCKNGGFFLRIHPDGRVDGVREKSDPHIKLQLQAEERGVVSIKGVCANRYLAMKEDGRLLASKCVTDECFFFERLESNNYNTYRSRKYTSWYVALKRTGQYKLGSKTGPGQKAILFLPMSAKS

In the case of “KKKQKNGKKHQKKKVLKVRKSQRSRQKKTT [CXCL9(74-103)]”, the “cell viability / toxicity” value (HMVECs) is reported as “without inducing any cell toxicity”, the koff (FGF-2 [1]) is reported as 0.00207 s⁻¹ and the kon (FGF-2 [1]) is reported as 20000 M⁻¹ s⁻¹.
In the case of “TSP-2: another TSP (thrombospondin) with anti-angiogenic activity”, the “interaction with FGF-2” value (FGF-2 [2]) is given as “able to interact with FGF-2 and interfered with HS and FGFR1 binding”.
In the case of “synstatin (SSTNEGFR): a peptide based on the EGFR interaction motifs”, the “displacement from syndecan and cell migration” value [3] is listed as “displaces the RTK and α3β1 integrin from the syndecan and prevents cell migration”.
